Holding throughout (test): standard disc plate assay, zones of inhibition
What all share (type): cell-based

The test system of one assay is S. lutea UC 130. In short, it runs like this:
(§1)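 Compound applied on 12.5 mm paper discs placed on seeded agar plates in a standard disc plate assay. Growth inhibition is recorded as the zone formed around each disc.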

In another assay the test system is S. aureus UC 80. The conditions noted are these: Staphylococcus aureus, 12.5 mm paper discs; for zone of inhibition at 100 µg/mL: UC80, read-out: Zones of Inhibition, 0.1 mg/ml; for zone of inhibition at 1000 µg/mL: UC80, read-out: Zones of Inhibition, 1 mg/ml. In short, it runs like this:
as §1

The test system of the next assay is Ps. aeruginosa UC 95. The conditions noted are these: Pseudomonas aeruginosa, UC95, read-out: Zones of Inhibition, 1 mg/ml, 12.5 mm paper discs. Summed up:
as §1

Where two headings read alike, the source gives them in different places.

Consider `NC[C@H]1O[C@H](O[C@H]2[C@H](O)[C@@H](O)[C@H](N)C[C@@H]2N)[C@H](N)[C@@H](O)[C@@H]1O` [Neamine], for which the “Zones of Inhibition” value in the assay with S. lutea UC 130 (1 mg/ml, 12.5 mm paper discs, Table II) turned out to be 17 mm. Besides, the zone of inhibition at 1000 µg/mL with S. lutea UC 130 (Micrococcus luteus, UC130, read-out: Zones of Inhibition) came out at 17 mm; with S. aureus UC 80 (Table I), 29 mm; in the assay with S. aureus UC 80 (Table II), 26 mm; in the assay on Ps. aeruginosa UC 95 (Table I) it was 17 mm; with Ps. aeruginosa UC 95 (Table II), 18 mm. Also, the values for the zone of inhibition at 100 µg/mL with S. aureus UC 80 (Table I) and in the assay with S. aureus UC 80 (Table II) were 20 mm and 18 mm, respectively.

Source of the values: patent US4169197A, “6-Deoxyneamines aminoglycoside compounds” (The Upjohn Company, priority 1978, dated 1979).
